Test systems include U251 CNS; A549 NSCLC; K-562 leukemia; NCI-H522 lung; NCI-H460 lung; SF-539 CNS; KM12 colon; NCI/ADR-RES ovarian.
Holding throughout (test): NCI anticancer screen, dose series, 48 h

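Protocol summary: plate cells (96-well), add compound at 5 concentrations, incubate 48 h, interpolate endpoints linearly. GI50 = concentration required for 50% inhibition of growth. TGI: concentration producing complete growth inhibition.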 Some results are limits rather than exact numbers.

On to `O=C1/C(=C/c2ccc([N+](=O)[O-])o2)Oc2ccccc21`, for which the GI50 in the assay with U251 CNS is 1.96 µM; with A549 NSCLC, 3.23 µM; with K-562 leukemia it was 0.371 µM; in the assay with NCI-H522 lung, 0.384 µM; in the assay with NCI-H460 lung it was 1.91 µM; in the assay on SF-539 CNS it was 1.87 µM. Further, the values for the GI50 in the assay with KM12 colon and with NCI/ADR-RES ovarian were 1.77 µM and 3.08 µM, respectively. Also, the TGI came out at 4.66 µM with U251 CNS; 12.3 µM in the assay on A549 NSCLC; 1.97 µM with K-562 leukemia; 1.45 µM in the assay with NCI-H522 lung; 4.09 µM with NCI-H460 lung; 4.14 µM in the assay with SF-539 CNS. In addition, the TGI in the assay with KM12 colon stood at 3.48 µM; in the assay on NCI/ADR-RES ovarian, 11.7 µM.
In the case of `O=C1/C(=C/c2ccc(Cl)cc2)CN(Cc2cn(CCNc3ccnc4cc(Cl)ccc34)nn2)C/C1=C\c1ccc(Cl)cc1`, the GI50 with U251 CNS was 0.185 µM; in the assay with A549 NSCLC, 0.284 µM; in the assay with K-562 leukemia it was 0.302 µM; with NCI-H522 lung, 0.52 µM; in the assay on NCI-H460 lung, 0.247 µM; with SF-539 CNS, 0.264 µM. In addition, the results for the GI50 in the assay with KM12 colon and in the assay with NCI/ADR-RES ovarian were 0.22 µM and 0.406 µM, respectively. Further, the TGI with U251 CNS was found to be 0.391 µM; in the assay on A549 NSCLC, 0.834 µM; with K-562 leukemia, 1.08 µM; with NCI-H522 lung, 1.19 µM; with NCI-H460 lung it was 0.602 µM; with SF-539 CNS, 0.742 µM. Further, the TGI in the assay on KM12 colon came to 0.496 µM; in the assay on NCI/ADR-RES ovarian, 2.24 µM.
In the case of `COc1ccc(N(C)c2nc(Cl)nc3ccn(C)c23)cc1`, the GI50 in the assay with U251 CNS, in the assay on A549 NSCLC, with K-562 leukemia, in the assay on NCI-H522 lung, in the assay on NCI-H460 lung and in the assay on SF-539 CNS was under 0.01 µM throughout. Moreover, the GI50 in the assay on KM12 colon and in the assay with NCI/ADR-RES ovarian was under 0.01 µM throughout. Moreover, the TGI in the assay with U251 CNS was over 100 µM; in the assay with A549 NSCLC it was over 100 µM; in the assay on K-562 leukemia it was over 100 µM; with NCI-H522 lung it was under 0.01 µM; in the assay on NCI-H460 lung, over 100 µM; with SF-539 CNS, over 100 µM. Moreover, the TGI in the assay on KM12 colon and in the assay on NCI/ADR-RES ovarian was over 100 µM in each case.
For `COc1cc(C(=O)N2CCN(c3ccccc3OC)CC2)c(N)cc1OCc1ccccc1`, the GI50 in the assay on U251 CNS was 41.8 µM; in the assay with A549 NSCLC, 34.8 µM; with K-562 leukemia, 27.2 µM; in the assay with NCI-H522 lung, 25.9 µM; in the assay on NCI-H460 lung, 33.1 µM; in the assay with SF-539 CNS, 45.3 µM. Besides, the GI50 in the assay on KM12 colon is 32.9 µM; in the assay on NCI/ADR-RES ovarian, 33.5 µM. The TGI was over 100 µM in the assay with U251 CNS; over 100 µM with A549 NSCLC; over 100 µM in the assay on K-562 leukemia; 80.6 µM with NCI-H522 lung; over 100 µM in the assay on NCI-H460 lung; over 100 µM with SF-539 CNS. The results for the TGI in the assay with KM12 colon and in the assay with NCI/ADR-RES ovarian were 90.6 µM and over 100 µM, respectively.
On to `COc1cc2c3c(n(CCCNC(=O)OCC4c5ccccc5-c5ccccc54)c(=O)c2cc1OC)-c1cc2c(cc1C3=O)OCO2`, for which the GI50 in the assay with U251 CNS is 1.67 µM; with A549 NSCLC it was over 100 µM; with K-562 leukemia, over 79.4 µM; with NCI-H522 lung, 34.9 µM; with NCI-H460 lung, 2.57 µM; with SF-539 CNS, 7.25 µM. Further, the GI50 with KM12 colon and in the assay on NCI/ADR-RES ovarian was over 100 µM each time. For the same compound, the TGI with U251 CNS was over 87.6 µM; in the assay on A549 NSCLC, over 100 µM; in the assay on K-562 leukemia, over 100 µM; in the assay on NCI-H522 lung, over 100 µM; in the assay on NCI-H460 lung, over 100 µM; in the assay with SF-539 CNS, 31.2 µM. The TGI in the assay with KM12 colon and in the assay with NCI/ADR-RES ovarian was over 100 µM in each case.
Regarding `CC1(C)N=C(N)N=C(N)N1c1ccc(OCC(=O)N2CCOCC2)c(Cl)c1`, the GI50 with U251 CNS was 1.16 µM; in the assay on A549 NSCLC it was 0.271 µM; with K-562 leukemia it was 0.854 µM; in the assay on NCI-H522 lung it was 2.24 µM; with NCI-H460 lung it was 0.362 µM; in the assay with SF-539 CNS, 5.32 µM. The GI50 in the assay on KM12 colon was 4.7 µM; in the assay on NCI/ADR-RES ovarian, over 100 µM. For the same compound, the TGI with U251 CNS, in the assay on A549 NSCLC, in the assay on K-562 leukemia, with NCI-H522 lung, in the assay on NCI-H460 lung and in the assay with SF-539 CNS was over 100 µM in each case. For the same compound, the TGI in the assay on KM12 colon and in the assay with NCI/ADR-RES ovarian was over 100 µM in each case.
`CS(=O)(=O)Nc1cccc(-c2ccc3c(NC(=O)C4CC4)n[nH]c3c2)c1`: the GI50 was 1.49 µM with U251 CNS; 10.9 µM with A549 NSCLC; 0.776 µM in the assay on K-562 leukemia; 0.308 µM in the assay on NCI-H522 lung; 7.76 µM in the assay on NCI-H460 lung; 1.5 µM with SF-539 CNS. In addition, the GI50 in the assay on KM12 colon is 1.39 µM; in the assay on NCI/ADR-RES ovarian, 6.45 µM. Also, the TGI with U251 CNS, in the assay with A549 NSCLC, in the assay with K-562 leukemia, with NCI-H460 lung, in the assay on SF-539 CNS and with KM12 colon was over 25 µM throughout. In the assay with NCI/ADR-RES ovarian, this compound gave a TGI of over 25 µM.
In the case of `O=C1c2cccc3cccc(c23)C(=O)N1CCCCN1CCN(CCCCOc2ccc(-c3nc4ccc(N5CCOCC5)cc4[nH]3)cc2)CC1`, the GI50 was 7.93 µM in the assay with U251 CNS; over 100 µM in the assay on A549 NSCLC; 4.35 µM in the assay with K-562 leukemia; over 100 µM in the assay with NCI-H522 lung; over 100 µM in the assay on NCI-H460 lung; over 100 µM with SF-539 CNS. In addition, the GI50 with KM12 colon and in the assay on NCI/ADR-RES ovarian was over 100 µM throughout. Besides, the TGI in the assay on U251 CNS, in the assay with A549 NSCLC, in the assay with K-562 leukemia, with NCI-H522 lung, with NCI-H460 lung and in the assay on SF-539 CNS was over 100 µM in each case. Besides, the TGI with KM12 colon and in the assay on NCI/ADR-RES ovarian was over 100 µM in each case.
In the case of `CCN(CC)CCCNc1nc2ccccc2c2c(=O)c3cc(Cl)ccc3sc12`, the GI50 with U251 CNS is 2.04 µM; in the assay with A549 NSCLC, 2.02 µM; in the assay on K-562 leukemia, 2.29 µM; in the assay on NCI-H522 lung it was 2.02 µM; in the assay on NCI-H460 lung it was 1.7 µM; with SF-539 CNS, 1.73 µM. Also, the figures for the GI50 in the assay on KM12 colon and in the assay with NCI/ADR-RES ovarian were 1.79 µM and 2.04 µM, respectively. Also, the TGI was found to be 4.92 µM in the assay with U251 CNS; 4.52 µM in the assay on A549 NSCLC; 5.51 µM in the assay with K-562 leukemia; 4.41 µM in the assay with NCI-H522 lung; 3.36 µM with NCI-H460 lung; 3.35 µM with SF-539 CNS. In addition, the TGI was determined as 3.24 µM in the assay on KM12 colon and 4.99 µM in the assay with NCI/ADR-RES ovarian.
